Data reported in PMC4791274, “Cerdulatinib, a novel dual SYK/JAK kinase inhibitor, has broad anti-tumor activity in both ABC and GCB types of diffuse large B cell lymphoma” (Oncotarget, 2015).

Tests used:
MLK1 = conditions: biochemical assay; cited from earlier work
[1] = system: primary human DLBCL samples; experiment: MTT viability of primary DLBCL samples; type: cell-based; conditions: 0.5 μM and 1 μM, 72 h, six primary samples
Procedure: GCB cell lines OCI-LY1, OCI-LY4, OCI-LY8, OCI-LY18, SUDHL6 and VAL were cultured in Iscove's Modified Dulbecco's Medium (IMDM) supplemented with 20% Fetal Bovine Serum (FBS) and 100 μg/mL penicillin/streptomycin. ABC cell lines SUDHL2 and HBL1 were cultured in RPMI1640 supplemented with 20% FBS and 100 μg/mL penicillin/streptomycin. OCI-LY3 cells were grown in RPMI1640 supplemented with 20% FBS, 100 μg/ml penicillin/streptomycin and HEPES. ABC cell lines OCI-LY10 was cultured in Iscove's Modified Dulbecco's Medium (IMDM) supplemented with 20% human serum and 100 μg/mL penicillin/streptomycin. ABC cell line U2932 was cultured in high glucose RPMI1640 supplemented with 20% FBS, 100 μg/ml penicillin/streptomycin. All cells were maintained in a humidified 37°C/5% CO2 incubator. […]
DLBCL cell lines were treated with various concentrations of cerdulatinib for up to 72 h. The metabolic activities of cells were determined with MTT assay according to manufacturer's instruction (Roche Applied Science, Indianapolis, IN) at 72 h time point. IC50 was calculated using the Sigma Plot generated with GraphPad Prism 6 software (GraphPad, La Jolla, CA). Cell growth was measured at every 24 h counting live cells with flow cytometry as previously described. Cells were collected every 24 h and cell viability was determined by the PE Annexin V Apoptosis Detection Kit I (BD Biosciences).

JAK2 = conditions: cited from earlier work
MARK1 = conditions: biochemical assay; cited from earlier work

## CCS(=O)(=O)N1CCN(c2ccc(Nc3ncc(C(N)=O)c(NC4CC4)n3)cc2)CC1 [cerdulatinib]
MLK1
  IC50: 5 nM
[1]
  response of primary DLBCL cells (viability, MTT): responded to cerdulatinib in a concentration-dependent manner
JAK2
  cellular activity against JAK2: lacking cellular activity
MARK1
  IC50: 10 nM
